Consider two compounds from PMC2375318, “Inhibition of the alpha-ν integrins with a cyclic RGD peptide impairs angiogenesis, growth and metastasis of solid tumours in vivo” (British Journal of Cancer, 2002).

SMILES strings stand for the structures. Non-standard residues stand in square brackets, D forms with d. Residues, ends and D or L forms follow the SMILES beside them. NMeV = CN[C@H](C(=O)O)C(C)C; βAla = NCCC(=O)O

In data set [1] the test system is amelanotic hamster melanoma A-Mel-3. Kind of data set: Intravital fluorescence microscopy of tumour angiogenesis and microcirculation in the dorsal skinfold chamber. It counts as in vivo, Syrian Golden hamster. As to conditions: for Appearance of tumour vasculature: 3 days after tumour cell implantation, FITC-Dextran plasma marker; for Functional vessel density (FVD): 30 mg kg^−1 b.w. i.p. every 12 h from day 1, n=6, mean±s.e.m.; for Leucocyte–endothelium interaction in tumour microvessels: rhodamine 6G-stained leucocytes. How it is done:
(§1) For quantification of tumour angiogenesis, a dorsal skinfold chamber preparation consisting of two symmetrical titanium frames was surgically implanted into the dorsal skin as described earlier in detail ([Asaishi et al, 1981]; [Endrich et al, 1982]). This is considered to cause the least distress upon the animal because the dorsal skin is extremely expansible. Following implantation of the transparent chamber and a recovery period of 48 h from anaesthesia and microsurgery, preparations fulfilling the criteria of an intact microcirculation were implanted with 2×10^5 cells of the amelanotic melanoma of the hamster A-Mel-3 ([Fortner et al, 1961]). Fine polyethylene catheters (PE10, inner diameter 0.28 mm) were permanently inserted into the right jugular vein 48 h before first measurement to allow injection of fluorescent agents for intravital fluorescence microscopy.
(§2) Quantification of tumour angiogenesis using intravital fluorescence microscopy have been described in detail elsewhere ([Asaishi et al, 1981]; [Dellian et al, 1995], [1996]). In brief, the awake animal was trained to crawl into a transparent plastic tube and was placed on a custom-made stage under a modified Leitz microscope (Orthoplan; Leitz, Munich, Germany). FITC-labelled dextran (Sigma, Deisenhofen, Germany; MW 500000; 0.05–0.1 ml of a 5% solution in 0.9% NaCl) as a plasma marker and rhodamine 6G (Molecular Probes, Eugene, OR, USA; 0.04 ml of a 0.05% solution in 0.9% NaCl) to label white blood cells in vivo, were injected i.v. to visualise microcirculation and leucocyte–endothelium interaction, respectively. […] Selective observation of FITC-labelled plasma was possible using epi-illumination with a 100 W mercury lamp attached to a Ploemopack illuminator with a Leitz I2/3 filter block (excitation 450–490 nm, emission ⩽515 nm) and rhodamine 6G-stained leucocytes were visualised using a Leitz N2 filter block (excitation 530–560 nm, emission ⩽580 nm). Intravital microscopy was performed 3, 5, 9 and 13 days after implantation of the tumour cells. At least 3–5 sites of interest per animal were randomly selected in centre and periphery of the tumour. Images were acquired by a SIT video camera (C2400-08; Hamamatsu Herrsching, Germany) and recorded on S-VHS video tape (Sony) for subsequent analysis. Parallel to microvascular observations the area covered by tumour in the chamber preparation was registered on videotape using a Leitz macroscope with video camera (XC-77; Sony) to evaluate tumour growth. The tumour area (mm^2) was quantified from videotape by digital image analysis.
Analysis of microcirculatory parameters was performed off-line from video tape by an image analysis system (Cap Image; Zeintl, Heidelberg, Germany). This system described in detail by [Zeintl et al (1989)] and [Klyscz et al (1997)] allows measurement of functional vessel density (FVD) as a parameter of angiogenic activity ([Dellian et al, 1996]). FVD is defined as the total length of perfused microvessels per unit area of observation and is given in cm^−1. Red blood cell velocity (vRBC) was quantified with the line shift diagram method according to [Klyscz et al (1997)] in mm s^−1. Rolling leucocytes were defined as population of cells temporarily interacting with the vessel wall and thus having a velocity at least 50% below vRBC in the same vessel. Adherent leucocytes were given as the number of leucocytes remaining stationary for at least 30 s per square millimetre of vessel wall surface ([Atherton and Born, 1972]; [Dellian et al, 1996]).
(§3) The cyclic integrin αv antagonist EMD121974 (cyclic Arg-Gly-Asp-D-Phe(N-methyl)Val) ([Dechantsreiter et al, 1999]) and the control peptide EMD135981 (cyclic Arg-β-Ala-Asp-D-Phe(N-methyl)Val) were synthesised and characterised at Merck KgAa (Darmstadt, Germany). In pilot studies pharmacokinetics of the peptides were compared after intravenous and intraperitoneal injection in hamsters. […]

The test system is the same in data set [2]. Kind of data set: Tumour growth (tumour area) in the dorsal skinfold chamber by video macroscopy. In kind it is in vivo, Syrian Golden hamster. The following applies: 30 mg kg^−1 i.p. every 12 h; for Tumour area: n=6, mean±s.e.m. How it is done: as §1, §2
(§4) The cyclic integrin αv antagonist EMD121974 (cyclic Arg-Gly-Asp-D-Phe(N-methyl)Val) ([Dechantsreiter et al, 1999]) and the control peptide EMD135981 (cyclic Arg-β-Ala-Asp-D-Phe(N-methyl)Val) were synthesised and characterised at Merck KgAa (Darmstadt, Germany). In pilot studies pharmacokinetics of the peptides were compared after intravenous and intraperitoneal injection in hamsters. […] Therefore, we chose the following set-up for administration: Peptides were dissolved in PBS (10 mg ml^−1). One day after implantation of tumour cells, animals were randomly assigned to two groups (n=6) and RGD-peptide EMD121974 or control-peptide EMD135981 were given i.p. every 12 h (30 mg kg^−1 b.w.) until the end of the experiments.

The next data set has as its system subcutaneous A-Mel-3. Kind of data set: Growth and lymph node metastasis of subcutaneous A-Mel-3 tumours. In kind it is in vivo, Syrian Golden hamster. The following applies: for Subcutaneous tumour volume / growth pattern: calliper measurement every other day from day 5, 30 mg kg^−1 i.p. every 12 h. How it is done: Male Syrian Golden Hamsters (weight, age and housing as described above) were anaesthetised with pentobarbital and the dorsal skin was shaven and chemically depilated (Pilcamed, Schwarzkopf, Germany). Cells (4 to 6×10^6) of the A-Mel-3 were suspended in a 10 μl volume and injected s.c. over the lumbosacral region of the dorsal skin. This is considered to cause the least distress upon the animal because the dorsal skin is extremely expansible. Starting on day 5 after tumour cell implantation, the longer (l) and shorter (w) perpendicular axes and the height (h) of each tumour nodule were measured with callipers every other day. Metastases of the animals were determined by palpation of axillar and inguinal lymph nodes. The day when metastases were first palpable the animal was defined as metastasised. To minimise the pain and distress of the animals no biopsies were taken from the lymph nodes during the observation time. This was due to the known fact that the axillar or inguinal lymph nodes were the most frequent sites of metastasis formation ([Fortner et al, 1961]; [Weiss et al, 1990]). After the end of the experiments when animals were euthanised, biopsies were taken to confirm histologically the invasion of the lymph nodes. Tumour volume was calculated according to the formula Vt=0.837×l×w×h ([Weiss et al, 1990]).
as §4
Results are presented as mean±s.e.m. Data were evaluated using Wilcoxon–Mann–Whitney U and Kruskal–Wallis test, respectively (SigmaStat; Jandel Scientific, San Rafael, CA, USA). Metastasis analysis was performed according to the Kaplan–Meier method ([Kaplan and Meier, 1958]) and the differences were compared for statistical significance using the Cox-F test ([Lee, 1975], [1980]) with the statistical software program Statistica (StatSoft, Inc, 1997, Tulsa, OK, USA). P values smaller than 5% were considered to be significant.

Data set [3] in a line: Pilot pharmacokinetics after intravenous and intraperitoneal injection. It counts as in vivo, hamster. The following applies: hamsters, pilot study. How it is done:
as §4

Data set [4] can be described thus: Tolerability during treatment (side effects, body weight, behaviour). It counts as in vivo, Syrian Golden hamster. The following applies: 30 mg kg^−1 i.p. twice a day. The protocol:
Experiments were performed with male Syrian Golden Hamsters (6–8 weeks old, 50–60 g body weight (bw)) in accordance with institutional guidelines after approval of the animal committee of the Bavarian state. The animals were housed one per cage and had free access to tap water and standard laboratory food throughout the experiments. Animals were inspected at least two times a day by specialised animal colony staff to assure a normal clinical condition (including appearance, posture, behaviour and physiological responses). Particular attention was given to body weight and any signs of discomfort, ulceration or inflammation. All surgical procedures were performed under pentobarbital anaesthesia (50 mg kg^−1 b.w., i.p.; Nembutal, Sanofia-Leva, Hannover, Germany). The experiments met all the standards required by the UKCCCR guidelines for the welfare of animals in experimental neoplasia (United Kingdom Co-ordinating Committee on Cancer Research ([UKCCCR), 1998]).
as §3

The mark [5] stands for this setting: day 13 after tumour implantation.

The term half-life denotes the time needed for the level to fall by half in the phase considered. Take `CC(C)[C@H]1C(=O)N[C@@H](CCCNC(=N)N)C(=O)NCC(=O)N[C@@H](CC(=O)O)C(=O)N[C@H](Cc2ccccc2)C(=O)N1C` [EMD121974, cyclic Arg-Gly-Asp-D-Phe(N-methyl)Val]: in data set [1], the “Appearance of tumour vasculature” value is “only individual sprouts as signs of early angiogenesis were visible”. For the same compound, the “Functional vessel density (FVD)” value in data set [1] (day 3 after tumour cell implantation) was determined as 32.7 ± 12.1 cm⁻¹; in data set [1] (setting [5]), 156.9 ± 15.6 cm⁻¹. Besides, in data set [1] (days 9 and 13, 30 mg kg^−1 i.p. every 12 h), the “Red blood cell velocity (vRBC) versus control peptide” value is listed as “slightly lower”. Further, the “Vessel diameters, RGD peptide versus control peptide” value in data set [1] (intravital microscopy, 30 mg kg^−1 i.p. every 12 h) is “no differences”. The “Leucocyte–endothelium interaction in tumour microvessels” value in data set [1] (30 mg kg^−1 i.p. every 12 h) was “almost absent”. Also, the Tumour area in data set [2] (day 9) is recorded as 20.5±1.4 mm^2; in data set [2] (day 13), 49.1±4.8 mm^2. The “Tumour area versus controls” value in data set [2] (days 3 and 5) is listed as “slightly smaller than controls”. For the same compound, in the data set on subcutaneous A-Mel-3, the “Subcutaneous tumour volume / growth pattern” value was “significantly smaller in comparison to controls on days 7 until 15”. The “Effect on tumour growth of 30 mg kg^−1 every 12 h compared to 30 mg every 2 days” value in the data set with subcutaneous A-Mel-3 (pilot study) is “slightly higher effect on tumour growth”. Further, the half-life in data set [3] (Syrian Golden, hamster, plasma, ip, after intraperitoneal injection, read-out: Plasma half-life time) was 47 min. Besides, the “Area under the curve, intraperitoneal versus intravenous administration” value in data set [3] is “similar”. For the same compound, the “Side effects in treated animals” value in data set [4] is “no side effects were observed”. For the same compound, the Body weight result in data set [4] (control and treated animals) was “increased similar in control and treated animals”.
For the compound `CC(C)[C@H]1C(=O)N[C@@H](CCCNC(=N)N)C(=O)NCCC(=O)N[C@@H](CC(=O)O)C(=O)N[C@H](Cc2ccccc2)C(=O)N1C` [EMD135981, cyclic Arg-β-Ala-Asp-D-Phe(N-methyl)Val, reference compound] (cyclo(D[dF][NMeV]R[βAla])), in data set [1], the “Appearance of tumour vasculature” value is listed as “dense, chaotic structured network”. Further, the “Functional vessel density (FVD)” value in data set [1] (setting [5]) came to 108.2 ± 10.6 cm⁻¹. Also, in data set [1] (measurements on days 3, 5, 9 and 13, 30 mg kg^−1 i.p. every 12 h), the “Day on which FVD reached its maximum value” was 5 days. Moreover, in data set [1] (30 mg kg^−1 i.p. every 12 h), the “Leucocyte–endothelium interaction in tumour microvessels” value is reported as “almost absent”. Also, the Tumour area in data set [2] (day 9) was 28.1±3.2 mm^2; in data set [2] (day 13), 80.94±6.1 mm^2. Besides, in the data set on subcutaneous A-Mel-3, the “Subcutaneous tumour volume / growth pattern” value is recorded as “nearly exponential growth”. The “Day lymph node metastasis first palpable” value in the data set with subcutaneous A-Mel-3 (in two animals of the group, palpation) turned out to be 9 days. In addition, in the data set on subcutaneous A-Mel-3 (two days after day 9, palpation of axillar and inguinal lymph nodes), the “Palpable lymph node metastasis on day 11” value was “palpable metastasis was found in all control animals”.
